“And” between values parts separate entries of the source, which are not always exact repeats. Equal entries are not always repeated. Marks after values point to notes of the source that are not given here.
Key:
[1] = target: T1, Human constitutive androstane receptor (hCAR) (Homo sapiens, UniProt Q14994); test: hCAR reporter activity in HEK293T cells; type: cell-based
T1 construct: expressed in transfected cells; host or cells: HEK293T
Procedure: Reverse transfection assays were performed in Caco‐2 cells as previously published with the following modifications (Kublbeck et al, 2015). 3.0 × 10^4 cells per well were transfected using pSG5‐PXR plasmid (300 ng/well), β‐Gal expression plasmid (600 ng/well), and CYP3A4‐luciferase reporter (500 ng/well) (Huang et al, 2007). After 24‐h transfection using Lipofectamine® LTX ([…] of plasmid), cells were exposed to FKK5 for 24 h. Cell lysates were prepared for β‐Gal and luciferase assays as previously published (Huang et al, 2007). The data are expressed as mean ± SD RLU (relative light units from luciferase assay) normalized to β‐Gal activity in the same well. Differences were tested using 2‐way ANOVA with Tukey's multiple comparison test, and P < 0.05 was considered significant (*). Standard transient transfection assays (PXR, CAR) in HEK293T cells were performed as previously published (Huang et al, 2007).

hPXR = target: T2, hPXR (Homo sapiens, UniProt O75469); test: hPXR TR-FRET competitive binding assay (LanthaScreen); conditions: for 520/495 TR-FRET ratio: replicate wells; for TR-FRET signal (Fig 1e): each column a repeat
T2 sequence (O75469 111-434 limits assumed): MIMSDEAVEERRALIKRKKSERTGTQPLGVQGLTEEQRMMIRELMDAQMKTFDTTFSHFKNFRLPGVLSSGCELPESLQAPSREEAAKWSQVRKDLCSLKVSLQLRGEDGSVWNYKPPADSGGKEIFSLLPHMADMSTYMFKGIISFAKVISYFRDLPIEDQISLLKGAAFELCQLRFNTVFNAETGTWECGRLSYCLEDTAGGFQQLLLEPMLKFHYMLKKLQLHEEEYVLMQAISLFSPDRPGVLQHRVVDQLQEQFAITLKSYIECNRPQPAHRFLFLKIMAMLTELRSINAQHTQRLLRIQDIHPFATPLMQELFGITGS
Procedure: All PXR‐binding assays were performed as two independent experiments, each with a minimum of four replicates. Final IC50 was obtained by processing the data with GraphPad Prism 6 using standard curve interpolation (sigmoidal, 4PL, variable slope).

S. typhimurium 14038 = test: Salmonella invasion (gentamicin protection assay) in Caco-2 monolayers; type: cell-based, Salmonella typhimurium; conditions: for cytokine-induced salmonella invasion: 10 and 25 μM, vs cytokines only; for Salmonella CFU/ml: Caco-2 cells, triplicate
Procedure: FKK compounds were tested for their ability to prevent Salmonella invasion in vitro in non‐inflamed and inflamed cell cultures. Overnight cultures of S. typhimurium 14038 were diluted to OD600 0.01 and injected into with HIOs or immersed over Caco‐2 monolayers for 1 h at 37°C. The invasive ability of Salmonella was assessed using the gentamicin protection assay (Gagnon et al, 2013). Bacterial adhesion scenarios to the Caco‐2 surface were set up as described above. Non‐adhered bacteria were removed by washing twice in PBS, followed by incubation with 1 ml gentamicin (150 μg/ml in DMEM) for 1 h at 37°C to kill the adhered extracellular bacteria. Dead bacteria were removed by washing twice in PBS, followed by incubation with 500 μl 0.1% Triton X‐100 for 15 min at 37°C to lyse the HIOs and Caco‐2, and release the intracellular (invaded) bacteria. Serial fold dilutions and plating were then employed to determine CFU/ml. We normalized to total protein using Bradford assay.

NF-κB = NF-κB nuclear translocation (immunofluorescence) in human intestinal organoids; type: cell-based; conditions: 25 μM, with cytokines
Procedure: HIOs and Caco‐2 were exposed to a pro‐inflammatory cytokine cocktail (10 ng/ml IFN‐γ, 10 ng/ml TNF‐α, 50 ng/ml IL‐1β) for 2–24 h in combination with DMSO or FKK5 and FKK6 compounds (10 and 25 μm). Relative mRNA levels of IL‐8 and IL‐6 were determined using quantitative real‐time PCR, with normalization to GAPDH. RNA was isolated using an RNeasy Mini Kit (Qiagen) as per the manufacturer's instructions. On column DNase (Qiagen) was used to remove any contaminating DNA. Next, cDNA was formed using iScript cDNA Synthesis Kit (Bio‐Rad) and 100 ng RNA. qRT–PCR was performed with SsoAdvanced Universal SYBR Green Kit (Bio‐Rad). The following primers were used: IL‐8 Forward: […]; IL‐8 Reverse: […]; IL‐6 Forward: […]; IL‐6 Reverse: […]; GAPDH Forward: […]; GAPDH Reverse: […]. For immunofluorescent staining of NF‐ĸB translocation to the cell nucleus, HIOs and Caco‐2 cell monolayers were fixed in 4% formaldehyde (in 1 × PBS) overnight at 4°C. The formaldehyde was removed by washing with 1 × PBS, and an antigen retrieval step was performed by incubating in 10 mM sodium citrate buffer in a vegetable steamer for 20 min. The samples were then blocked with normal donkey serum (10% in PBS with 0.3% Triton X‐100) for 1 h. […]

[2] = test system: CYP1A1, CYP3A4, MDR1 mRNA in LS180 cells; test: qRT-PCR of CYP1A1, CYP3A4, MDR1 mRNA in LS180 cells with or without (mock) transfected PXR; conditions: for CYP1A1 mRNA induction: LS180 cells; for CYP1A1 mRNA fold to C / CYP3A4 mRNA fold to C / MDR-1 mRNA fold to C / MDR1 mRNA fold to C: normalised to GAPDH, fold to UT control
Procedure: Cells or primary human hepatocytes from four different donors (HEP200529, HEP220932, HEP200533, and HEP200538) were incubated for 24 h with test compounds; the vehicle was DMSO (0.1% v/v). Total RNA was isolated using TRI Reagent® (Molecular Research Center, Ohio, USA). cDNA was synthesized from 1,000 ng of total RNA using M‐MuLV Reverse Transcriptase (New England Biolabs, Ipswich, Massachusetts, USA) at 42°C for 60 min in the presence of random hexamers (New England Biolabs). Quantitative reverse transcriptase–polymerase chain reaction (qRT–PCR) was performed using LightCycler® 480 Probes Master on a LightCycler® 480 II apparatus (Roche Diagnostic Corporation).
The following protocol was used: An activation step at 95°C for 10 min was followed by 45 cycles of PCR (denaturation at 95°C for 10 s; annealing with elongation at 60°C for 30 s). The measurements were performed in triplicate. Gene expression was normalized per GAPDH as a housekeeping gene. […] Data are expressed as fold induction ± SD over the vehicle‐treated cells. The bar graph depicts one representative experiment of a series of experiments performed in three consecutive passages of cells. Differences were tested using one‐way ANOVA with Dunnett's post hoc test, and P < 0.05 was considered significant.

[3] = compound 10µm, no cytokines, 6 hr
[4] = compound 10µm, no cytokines, 12 hr
[5] = compound 25µm, no cytokines, 6 hr
[6] = cytokines + compound 10µm, 6 hr
[7] = cytokines + compound 25µm, 6 hr
[8] = cytokines + compound 25µm, 12 hr

T1 sequence (Q14994 whole entry): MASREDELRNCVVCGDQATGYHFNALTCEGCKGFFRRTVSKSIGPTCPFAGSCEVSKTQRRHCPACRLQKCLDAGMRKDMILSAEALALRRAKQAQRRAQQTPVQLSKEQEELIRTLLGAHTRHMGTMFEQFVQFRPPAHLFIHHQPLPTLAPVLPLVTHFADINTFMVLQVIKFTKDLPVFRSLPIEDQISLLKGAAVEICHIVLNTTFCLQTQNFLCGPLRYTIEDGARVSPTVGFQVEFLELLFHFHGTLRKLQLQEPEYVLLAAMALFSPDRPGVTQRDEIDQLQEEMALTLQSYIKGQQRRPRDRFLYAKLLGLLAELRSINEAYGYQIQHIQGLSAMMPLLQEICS

SMILES | CAR activity induction [1] | 520/495 TR-FRET ratio (hPXR; 0.001 uM) | 520/495 TR-FRET ratio (hPXR; 0.005 uM) | 520/495 TR-FRET ratio (hPXR; 0.01 uM) | 520/495 TR-FRET ratio (hPXR; 0.05 uM) | 520/495 TR-FRET ratio (hPXR; 0.1 uM) | 520/495 TR-FRET ratio (hPXR; 0.5 uM) | 520/495 TR-FRET ratio (hPXR; 1 uM) | 520/495 TR-FRET ratio (hPXR; 5 uM) | 520/495 TR-FRET ratio (hPXR; 10 uM) | 520/495 TR-FRET ratio (hPXR; 25 uM) | TR-FRET signal (Fig 1e) (hPXR; Drug Conc 5 nM) | TR-FRET signal (Fig 1e) (hPXR; Drug Conc 10 nM) | TR-FRET signal (Fig 1e) (hPXR; Drug Conc 25 uM) | cytokine-induced salmonella invasion (S. typhimurium 14038) | Salmonella CFU/ml (S. typhimurium 14038; [3]) | Salmonella CFU/ml (S. typhimurium 14038; [4]) | Salmonella CFU/ml (S. typhimurium 14038; [5]) | Salmonella CFU/ml (S. typhimurium 14038; [6]) | Salmonella CFU/ml (S. typhimurium 14038; [7]) | further results
C#CCC(O)(c1ccncc1)c1cc2ccccc2n1S(=O)(=O)c1ccccc1 (centres unmarked) [FKK6] | did not induce | 0.4136 and 0.4057 and 0.5035 and 0.4539 | 0.6293 and 0.6196 and 0.5845 and 0.6237 | 0.6566 and 0.5913 and 0.6411 and 0.6166 | 0.6583 and 0.5743 and 0.6162 and 0.6466 | 0.7390 and 0.6524 and 0.6459 and 0.6637 | 0.5359 and 0.4958 and 0.5519 and 0.5445 | 0.5035 and 0.4918 and 0.5332 and 0.5717 | 0.3896 and 0.3581 and 0.3234 and 0.3736 | 0.2832 and 0.3381 and 0.2857 and 0.3170 | 0.3206 and 0.2975 and 0.3225 and 0.3589 | 0.6293 and 0.6196 and 0.5845 and 0.6237 | 0.6566 and 0.5913 and 0.6411 and 0.6166 | 0.3206 and 0.2975 and 0.3225 and 0.3589 | significantly decreased | 3008 CFU/ml and 3000 CFU/ml and 1800 CFU/ml | 1840 CFU/ml and 3520 CFU/ml and 2960 CFU/ml | 2076 CFU/ml and 2290 CFU/ml and 2980 CFU/ml | 2276 CFU/ml and 2820 CFU/ml and 1500 CFU/ml | 1940 CFU/ml and 1870 CFU/ml and 1600 CFU/ml | TR-FRET signal (Fig 1e) (hPXR; Drug Conc 0,25 uM): 0.6324 and 0.6211 and 0.6238 and 0.5836; TR-FRET signal (Fig 1e) (hPXR; Drug Conc 1 nM): 0.4136* and 0.4057* and 0.5035* and 0.4539*; TR-FRET signal (Fig 1e) (hPXR; Drug Conc 50 nM): 0.6583 and 0.5743 and 0.6162 and 0.6466; TR-FRET signal (Fig 1e) (hPXR; Drug Conc 10 uM): 0.2832 and 0.3381 and 0.2857 and 0.317; Salmonella CFU/ml (S. typhimurium 14038; compound 25µm, no cytokines, 12 hr): 1360 CFU/ml and 2480 CFU/ml and 2320 CFU/ml; Salmonella CFU/ml (S. typhimurium 14038; [8]): 2520 CFU/ml and 1360 CFU/ml; salmonella invasion, compound alone (S. typhimurium 14038; no cytokines): No significant effect; NF-κB localisation (NF-κB): increased cytoplasmic; CYP1A1 mRNA induction [2]: did not induce; CYP3A4 mRNA induction ([2]; PXR-transfected LS180 cells): induced; MDR1 mRNA induction ([2]; PXR-transfected LS180 cells): induced; CYP1A1 mRNA fold to C ([2]; PXR-transfected LS180 cells): 2.02; CYP3A4 mRNA fold to C ([2]; PXR-transfected LS180 cells): 18.02; MDR-1 mRNA fold to C ([2]; PXR-transfected LS180 cells): 10.37; CYP1A1 mRNA fold to C ([2]; mock-transfected LS180 cells): 4.61; CYP3A4 mRNA fold to C ([2]; mock-transfected LS180 cells): 1.10; MDR1 mRNA fold to C ([2]; mock-transfected LS180 cells): 5.17
O=C(c1ccncc1)c1cc2ccccc2n1S(=O)(=O)c1ccccc1 [FKK5, (1-(phenylsulfonyl)-1H-indol-2-yl)(pyridin-4-yl)methanone] | did not induce | 0.6965 and 0.4501 and 0.6299 and 0.6424 | 0.7274 and 0.6833 and 0.7094 and 0.6960 | 0.5474 and 0.5649 and 0.4572 and 0.5311 | 0.6957 and 0.6419 and 0.6716 and 0.6881 | 0.6678 and 0.6931 and 0.6595 and 0.6666 | 0.6903 and 0.6366 and 0.6178 and 0.6056 | 0.6447 and 0.5990 and 0.6565 and 0.5995 | 0.4264 and 0.3946 and 0.3906 and 0.3944 | 0.2760 and 0.2201 and 0.3383 and 0.4401 | 0.2211 and 0.2334 and 0.2644 and 0.2449 | 0.7094 and 0.696 and 0.7274 and 0.6833 | 0.4572* and 0.5311* and 0.5474* and 0.5649* | 0.2644 and 0.2449 and 0.2211 and 0.2334 | significantly decreased | 5980 CFU/ml and 4820 CFU/ml and 5870 CFU/ml | 5920 CFU/ml and 4240 CFU/ml and 5520 CFU/ml | 4940 CFU/ml and 4950 CFU/ml and 4400 CFU/ml | 5800 CFU/ml and 5710 CFU/ml and 4100 CFU/ml | 3700 CFU/ml and 3900 CFU/ml and 3270 CFU/ml | TR-FRET signal (Fig 1e) (hPXR; Drug Conc 1 uM): 0.5995 and 0.6565 and 0.599 and 0.6447; TR-FRET signal (Fig 1e) (hPXR; Drug Conc 5 uM): 0.3906 and 0.3944 and 0.4264 and 0.3946; TR-FRET signal (Fig 1e) (hPXR; Drug Conc 2,5 uM): 0.4667 and 0.4734 and 0.4777 and 0.4842; Salmonella CFU/ml (S. typhimurium 14038; cytokines + compound 10µm, 12 hr): 2240 CFU/ml and 4480 CFU/ml and 4320 CFU/ml; Salmonella CFU/ml (S. typhimurium 14038; [8]): 3040 CFU/ml and 3240 CFU/ml and 2560 CFU/ml; salmonella invasion, compound alone (S. typhimurium 14038; no cytokines): No significant effect; NF-κB localisation (NF-κB): increased cytoplasmic; CYP1A1 mRNA induction [2]: did not induce; CYP1A1 mRNA fold to C ([2]; PXR-transfected LS180 cells): 1.86; CYP3A4 mRNA fold to C ([2]; PXR-transfected LS180 cells): 3.69; MDR-1 mRNA fold to C ([2]; PXR-transfected LS180 cells): 4.10; CYP1A1 mRNA fold to C ([2]; mock-transfected LS180 cells): 8.19; CYP3A4 mRNA fold to C ([2]; mock-transfected LS180 cells): 0.94; MDR1 mRNA fold to C ([2]; mock-transfected LS180 cells): 3.80
